In brackets after ≈: the same amount, converted by molar mass. Like-named read-outs stand apart in the source and are kept apart here.
What was measured:
Assay type in all cases: cell-based
[1] = tested on: Salmonella enterica subsp. enterica typhimurium; assay: MIC, 20-strain panel
Procedure: (§1) A microdilution method in 96-well plates was used and the MIC protocol established by the Clinical Laboratory Standards Institute was followed. From a growing subculture, a 1:10000 inoculum of each strain in Luria-Bertani media was prepared and aliquoted 100 μL in 4 columns of wells, except for the top row wells, which contained 200 μL of inoculum. A solution of gyramide C2 was aliquoted into 3 of the wells containing 200 μL and DMSO was added to the 4th well. The liquid in each of wells was mixed with a multi-channel pipet and 100 μL was transferred to the next well and mixed. The 2-fold dilution was continued down the 96-well plate until 100 μL was left, which was discarded. The plates were incubated at 37° C. with shaking for 16-18 hours. The MIC was determined as the lowest concentration that inhibited growth and had no turbidity by visual inspection.
(§2) Minimum inhibitory concentrations of various gyramide compounds against 20 strains of bacteria were determined using the procedure described above.

Streptococcus pyogenes = assay: MIC, 20-strain panel
Procedure: as §1, §2

[2] = tested on: Klebsiella pneumoniae subsp. pneumoniae; assay: MIC, 20-strain panel
Procedure: as §1, §2

Shigella flexneri = assay: MIC, 20-strain panel
Procedure: as §1, §2

E. coli MG1655 = assay: MIC, 20-strain panel; conditions: Escherichia coli
Procedure: as §1, §2

[3] = tested on: Staphylococcus epidermidis; assay: MIC, 20-strain panel
Procedure: as §1, §2

[4] = tested on: Staphylococcus aureus subsp. aureus; assay: MIC, 20-strain panel
Procedure: as §1, §2

[5] = tested on: Staphylococcus saprophyticus subsp. saprophyticus; assay: MIC, 20-strain panel
Procedure: as §1, §2

Streptococcus agalactiae = assay: MIC, 20-strain panel
Procedure: as §1, §2

E. coli JW5503 (deltolC) = assay: MIC, 20-strain panel; conditions: Escherichia coli
Procedure: as §1, §2

Edwardsiella tarda = assay: MIC, microdilution in 96-well plates
Procedure: as §1, §2

E. coli BW25113 = assay: MIC, microdilution in 96-well plates; conditions: Escherichia coli
Procedure: as §1, §2

[6] = F: Salmonella enterica subsp. enterica Typhimurium
[7] = E: Klebsiella pneumoniae subsp. pneumoniae
[8] = MG1655, A: E. coli MG1655, read-out: MIC
[9] = H: Staphylococcus aureus subsp. aureus, read-out: MIC
[10] = BW25113, B: E. coli BW25113, read-out: MIC

SMILES	MIC [1, 6]	MIC (Streptococcus pyogenes)	MIC [2, 7]	MIC (Shigella flexneri; G: Shigella flexneri)	MIC [3]	MIC [5]	MIC (Streptococcus agalactiae)	MIC (E. coli JW5503 (deltolC); C: E. coli JW5503 (deltolC))	MIC (Edwardsiella tarda; D: Edwardsiella tarda)	MIC (E. coli MG1655; [8])	MIC [4, 9]	MIC (E. coli BW25113; [10])	further results
N#Cc1ccc(Cl)c(S(=O)(=O)N[C@@H]2CCN(Cc3ccc(-c4ccccc4)cc3)C2)c1 [Compound 11]	4 µg/mL (≈ 8.85 µM)	> 8 µg/mL	> 8 µg/mL	> 8 µg/mL	> 8 µg/mL	> 8 µg/mL	> 8 µg/mL	< 0.062 µg/mL	> 8 µg/mL				MIC (E. coli MG1655; MG1655, A: E. coli MG1655): > 8 µg/mL; MIC ([4]; H: Staphylococcus aureus subsp. aureus): > 8 µg/mL; MIC (E. coli BW25113; BW25113, B: E. coli BW25113): ~8 µg/mL (≈ 17.7 µM)
O=S(=O)(N[C@@H]1CCN(Cc2ccc(-c3cccs3)cc2)C1)c1cccc(OC(F)(F)F)c1 [Compound 53]	> 8 µg/mL	> 8 µg/mL	> 8 µg/mL	> 8 µg/mL	8 µg/mL (≈ 16.6 µM)	> 8 µg/mL	> 8 µg/mL	4 µg/mL (≈ 8.29 µM)	> 8 µg/mL	> 8 µg/mL	> 8 µg/mL	> 8 µg/mL	
O=S(=O)(N[C@@H]1CCN(Cc2ccc3c(c2)OCCO3)C1)c1cccc(C(F)(F)F)c1 [Compound 60]	> 8 µg/mL	> 8 µg/mL	> 8 µg/mL	> 8 µg/mL	> 8 µg/mL	> 8 µg/mL	> 8 µg/mL	8 µg/mL (≈ 18.1 µM)	> 8 µg/mL	> 8 µg/mL	> 8 µg/mL	> 8 µg/mL	
O=S(=O)(N[C@@H]1CCN(Cc2ccc(OC3CC3)cc2)C1)c1cccc2cccnc12 [Compound 96]	~8 µg/mL (≈ 18.9 µM)	> 8 µg/mL	> 8 µg/mL	> 8 µg/mL	> 8 µg/mL	> 8 µg/mL	> 8 µg/mL	1 µg/mL (≈ 2.36 µM)	> 8 µg/mL	> 8 µg/mL	> 8 µg/mL	> 8 µg/mL	
CC(C)Oc1c(Cl)cc(CN2CC[C@@H](NS(=O)(=O)c3cccc(OC(F)(F)F)c3)C2)cc1Cl [Compound 117]	> 8 µg/mL	> 8 µg/mL	> 8 µg/mL	> 8 µg/mL	> 8 µg/mL	> 8 µg/mL	> 8 µg/mL	> 8 µg/mL	> 8 µg/mL	> 8 µg/mL	> 8 µg/mL	> 8 µg/mL	
O=S(=O)(N[C@@H]1CCN(Cc2ccc(-c3cncnc3)cc2)C1)c1cccc(OC(F)(F)F)c1 [Compound 63]	> 8 µg/mL	> 8 µg/mL	> 8 µg/mL	> 8 µg/mL	> 8 µg/mL	> 8 µg/mL	> 8 µg/mL	4 µg/mL (≈ 8.36 µM)	> 8 µg/mL	> 8 µg/mL	> 8 µg/mL	> 8 µg/mL	
CC(C)(C)Oc1ccc(CN2CC[C@@H](NS(=O)(=O)c3cccc(C#N)c3)C2)cc1 [Compound 13]	> 8 µg/mL	> 8 µg/mL	> 8 µg/mL	> 8 µg/mL	> 8 µg/mL	> 8 µg/mL	> 8 µg/mL	8 µg/mL (≈ 19.3 µM)	> 8 µg/mL	> 8 µg/mL	> 8 µg/mL	> 8 µg/mL	
O=S(=O)(N[C@@H]1CCN(Cc2ccc(-c3ccccc3)cc2)C1)c1cnc2ccccc2c1 [Compound 178]		> 8 µg/mL			> 8 µg/mL	> 8 µg/mL	> 8 µg/mL						MIC ([1]; Salmonella enterica subsp. enterica Typhimurium): > 8 µg/mL; MIC ([2]; Klebsiella pneumoniae subsp. pneumoniae): > 8 µg/mL; MIC (Shigella flexneri): > 8 µg/mL; MIC (E. coli MG1655; MG1655, E. coli MG1655, read-out: MIC): > 8 µg/mL; MIC ([4]; Staphylococcus aureus subsp. aureus, read-out: MIC): > 8 µg/mL; MIC (E. coli JW5503 (deltolC); E. coli JW5503 (deltolC)): > 8 µg/mL; MIC (Edwardsiella tarda): > 8 µg/mL; MIC (E. coli BW25113; BW25113, E. coli BW25113, read-out: MIC): > 8 µg/mL
N#Cc1cccc(S(=O)(=O)N[C@@H]2CCN(Cc3nc(-c4ccccc4)cs3)C2)c1 [Compound 34]	> 8 µg/mL	> 8 µg/mL	> 8 µg/mL	> 8 µg/mL	> 8 µg/mL	> 8 µg/mL	> 8 µg/mL	> 8 µg/mL	> 8 µg/mL	> 8 µg/mL	> 8 µg/mL	> 8 µg/mL	
CC(C)Oc1ccc(CN2CC[C@@H](NS(=O)(=O)c3cc(S(=O)(=O)c4ccccc4)cs3)C2)cc1 [Compound 29]	> 8 µg/mL	> 8 µg/mL	> 8 µg/mL	> 8 µg/mL	> 8 µg/mL	> 8 µg/mL	> 8 µg/mL	> 8 µg/mL	> 8 µg/mL	> 8 µg/mL	> 8 µg/mL	> 8 µg/mL	

From US10253039B2, “Inhibitors of bacterial DNA gyrase with efficacy against gram-negative bacteria” (priority 2014, dated 2019)
